Earlier results as cited in patent US9102697B2, “Trioxacarcins and uses thereof” (President and Fellows of Harvard College, priority 2010, dated 2015).

Experiments:
gram-positive = conditions: cited from earlier work
murine models = conditions: cited from earlier work
LXFL 529L = conditions: lung cancer cell line LXFL 529L; cited from earlier work
MCF-7 = conditions: mammary cancer cell line MCF-7; cited from earlier work
H-460 = conditions: lung cancer cell line H-460; cited from earlier work
SF-268 = conditions: CNS cancer cell line SF-268; cited from earlier work
[1] = system: self-complementary DNA 12-mer d(AATTACGTAATT) (SEQ ID NO: 1); conditions: epoxide opening by N7 of the central guanine residue; cited from earlier work

Compound | antibiotic activity (gram-positive) | anti-tumor activity (murine models) | IC70 (LXFL 529L) | IC70 (MCF-7) | IC70 (H-460) | IC70 (SF-268) | reaction with the oligonucleotide [1]
COc1c2c(c(O)c3c4c(c(C)cc13)C1OC3(C(OC)OC)OC1C(O[C@H]1C[C@@H](O)[C@@](O)(C(C)=O)[C@H](C)O1)(O4)C3(O)CO)C(=O)C(O)CC2O[C@H]1C[C@@](C)(O)[C@H](OC(C)=O)[C@H](C)O1 (some centres unmarked) [Trioxacarcin B] | gram-positive antibiotic activity | anti-tumor activity |  |  |  |  | 
Trioxacarcin A | gram-positive antibiotic activity | anti-tumor activity | subnanmolar | subnanmolar | subnanmolar | subnanmolar | form a covalent complex
COc1c2c(c(O)c3c4c(c(C)cc13)C1OC3(C(OC)OC)OC1C(OC1CC(O)C(O)(C(C)O)C(C)O1)(O4)C31CO1)C(=O)C(O)CC2OC1COC(C)(OC(C)=O)C(C)(O)C1 (centres unmarked) [Trioxacarcin C] | gram-positive antibiotic activity | anti-tumor activity |  |  |  |  | 
